The values that follow come from ChEMBL document CHEMBL2380308, “Voulkensin C-E, new 11-oxocassane-type diterpenoids and a steroid glycoside from Caesalpinia volkensii stem bark and their antiplasmodial activities” (Bioorg Med Chem Lett, 2013).

In experiment [1] the test system is Plasmodium falciparum. Nature of the experiment: Antiplasmodial activity against Plasmodium falciparum D6. The class given is functional, organism-based.
For experiment [2], the system named is Plasmodium falciparum. Put plainly: Antiplasmodial activity against Plasmodium falciparum W2. It counts as functional, organism-based.

SMILES strings stand for the structures.

On to `CC(=O)O[C@@]1(C)CCC[C@@]2(C)[C@H]1CC[C@H]1[C@@H](C)c3ccoc3C[C@@H]12`, for which the IC50 (in general, the concentration needed to halve the response being measured) was found to be 25.7 µM in the experiment on Plasmodium falciparum [1] and 30.3 µM in the experiment on Plasmodium falciparum [2].

Take `CC[C@H](/C=C/[C@@H](C)[C@H]1CC[C@H]2[C@@H]3CC=C4C[C@@H](O[C@@H]5OC[C@@H](O)[C@H](O)[C@H]5O[C@@H]5O[C@H](CO)[C@@H](O)[C@H](O)[C@H]5O)CC[C@]4(C)[C@H]3CC[C@]12C)C(C)C`: the IC50 was 4.44 µM in the experiment with Plasmodium falciparum [1] and 2.74 µM in the experiment with Plasmodium falciparum [2].

`COC(=O)[C@]12CCC(C)(C)C[C@H]1C1=CC[C@@H]3[C@@]4(C)CC[C@H](OC(C)=O)C(C)(C)[C@@H]4CC[C@@]3(C)[C@]1(C)CC2`: the IC50 came to 18.7 µM in the experiment with Plasmodium falciparum [1] and 24.4 µM with Plasmodium falciparum [2].

As to `C=C1C(CCO)=CC(=O)[C@H]2[C@H]1CC[C@H]1C(C)(C)CCC[C@]21C`, the IC50 came out at 17.3 µM in the experiment with Plasmodium falciparum [1] and 22.8 µM in the experiment with Plasmodium falciparum [2].

`C=C1C(CCOC(=O)/C=C/c2ccc(O)c(O)c2)=CC(=O)[C@H]2[C@H]1CC[C@H]1C(C)(C)CCC[C@]21C`: the IC50 in the experiment on Plasmodium falciparum [1] amounted to 11.6 µM; in the experiment on Plasmodium falciparum [2] it was 16.5 µM.

Consider `CC[C@H](CC[C@@H](C)[C@H]1CC[C@H]2[C@@H]3CC=C4C[C@@H](O)CC[C@]4(C)[C@H]3CC[C@]12C)C(C)C` [BETA-SITOSTEROL], for which the IC50 in the experiment on Plasmodium falciparum [1] and with Plasmodium falciparum [2] was over 50 µM each time.

On to `CC[C@H](/C=C/[C@@H](C)[C@H]1CC[C@H]2[C@@H]3CC=C4C[C@@H](O)CC[C@]4(C)[C@H]3CC[C@]12C)C(C)C` [STIGMASTEROL], for which the IC50 with Plasmodium falciparum [1] and in the experiment on Plasmodium falciparum [2] was over 50 µM each time.

Regarding `CC1(C)CC[C@]2(C(=O)O)CC[C@]3(C)C(=CC[C@@H]4[C@@]5(C)CC[C@H](O)C(C)(C)[C@@H]5CC[C@]43C)[C@@H]2C1` [OLEANOLIC_ACID], the IC50 in the experiment with Plasmodium falciparum [1] was 23.8 µM; with Plasmodium falciparum [2], 26.2 µM.

Turning to `CC(=O)O[C@@]1(C)CCC[C@]2(C)[C@H]3Cc4occc4[C@H](C)[C@@H]3CC[C@@]12O`, the half-maximal inhibitory concentration (IC50) is 34.4 µM in the experiment on Plasmodium falciparum [1] and 30.7 µM in the experiment with Plasmodium falciparum [2].

With `C[C@H]1C(CCO)=CC(=O)[C@H]2[C@H]1CC[C@H]1C(C)(C)CCC[C@]21C`, the half-maximal inhibitory concentration (IC50) worked out at 18.7 µM with Plasmodium falciparum [1] and 15.6 µM in the experiment with Plasmodium falciparum [2].

For the compound `C[C@H]1c2ccoc2C[C@H]2[C@H]1CC[C@@]1(O)C(C)(C)CCC[C@]21C` [VOUCAPAN-5 ALPHA-OL], the IC50 in the experiment with Plasmodium falciparum [1] and in the experiment with Plasmodium falciparum [2] was over 50 µM each time.
